Measured values published in ChEMBL document CHEMBL5537115, “New broad-spectrum and potent antibacterial agents with dual-targeting mechanism: Promoting FtsZ polymerization and disrupting bacterial membranes” (Eur J Med Chem, 2024).
Calls of active or inactive are those of the source. The rule behind the calls is not given here.

What was measured:
[1] = test system: Acinetobacter baumannii; experiment: Selectivity ratio of MBC for Acinetobacter baumannii ATCC19606 to MIC for Acinetobacter baumannii ATCC19606; assay type: functional
[2] = test system: Acinetobacter baumannii; experiment: Antibacterial activity against Acinetobacter baumannii ATCC19606 incubated for 18 to 24 hrs; assay type: functional; details: time 18-24 hrs
[3] = test system: Staphylococcus aureus; experiment: Selectivity ratio of MBC for Staphylococcus aureus clinical isolate to MIC for Staphylococcus aureus clinical isolate; assay type: functional
[4] = test system: Staphylococcus aureus; experiment: Antibacterial activity against Staphylococcus aureus clinical isolate incubated for 18 to 24 hrs; assay type: functional; details: time 18-24 hrs
[5] = test system: Staphylococcus aureus; experiment: Selectivity ratio of MBC for methicillin-resistant Staphylococcus aureus ATCC43300 to MIC for methicillin-resistant Staphylococcus aureus ATCC43300; assay type: functional
[6] = test system: Bacillus subtilis; experiment: Selectivity ratio of MBC for penicillin-susceptible Bacillus subtilis ATCC9372 to MIC for penicillin-susceptible Bacillus subtilis ATCC9372; assay type: functional
[7] = test system: Bacillus subtilis; experiment: Antibacterial activity against penicillin-susceptible Bacillus subtilis ATCC9372 incubated for 18 to 24 hrs; assay type: functional; details: time 18-24 hrs
[8] = test system: Staphylococcus aureus; experiment: Antibacterial activity against methicillin-resistant Staphylococcus aureus ATCC43300 incubated for 18 to 20 hrs; assay type: functional; details: time 18-20 hrs
[9] = test system: Staphylococcus aureus; experiment: Selectivity ratio of MBC for erythromycin-susceptible Staphylococcus aureus ATCC25923 to MIC for erythromycin-susceptible Staphylococcus aureus ATCC25923; assay type: functional
[10] = test system: Staphylococcus aureus; experiment: Antibacterial activity against erythromycin-susceptible Staphylococcus aureus ATCC25923 incubated for 18 to 24 hrs; assay type: functional; details: time 18-24 hrs
[11] = test system: Streptococcus pyogenes; experiment: Antibacterial activity against erythromycin-resistant Streptococcus pyogenes 2 clinical isolate assessed as bacterial growth inhibition incubated for 20 hrs by CLSI based broth microdilution method; assay type: functional
[12] = test system: Staphylococcus epidermidis; experiment: Antibacterial activity against penicillin-resistant Staphylococcus epidermidis clinical isolate assessed as bacterial growth inhibition incubated for 20 hrs by CLSI based broth microdilution method; assay type: functional
[13] = test system: Staphylococcus aureus; experiment: Antibacterial activity against Staphylococcus aureus clinical isolate assessed as bacterial growth inhibition incubated for 20 hrs by CLSI based broth microdilution method; assay type: functional
[14] = test system: Staphylococcus aureus; experiment: Antibacterial activity against penicillin-resistant Staphylococcus aureus ATCC31007 assessed as bacterial growth inhibition incubated for 20 hrs by CLSI based broth microdilution method; assay type: functional
[15] = test system: Staphylococcus aureus; experiment: Antibacterial activity against methicillin-resistant Staphylococcus aureus ATCC43300 assessed as bacterial growth inhibition incubated for 20 hrs by CLSI based broth microdilution method; assay type: functional
[16] = test system: Klebsiella pneumoniae; experiment: Antibacterial activity against Klebsiella pneumoniae ATCC BAA-1902 assessed as bacterial growth inhibition incubated for 20 hrs by CLSI based broth microdilution method; assay type: functional
[17] = test system: Acinetobacter baumannii; experiment: Antibacterial activity against Acinetobacter baumannii ATCC19606 assessed as bacterial growth inhibition incubated for 20 hrs by CLSI based broth microdilution method; assay type: functional
[18] = test system: Escherichia coli; experiment: Antibacterial activity against wild-type Escherichia coli BW25113 assessed as bacterial growth inhibition incubated for 20 hrs by CLSI based broth microdilution method; assay type: functional
[19] = test system: Escherichia coli; experiment: Antibacterial activity against penicillin-susceptible Escherichia coli ATCC25922 assessed as bacterial growth inhibition incubated for 20 hrs by CLSI based broth microdilution method; assay type: functional
[20] = test system: Enterococcus faecium; experiment: Antibacterial activity against vancomycin-susceptible Enterococcus faecium ATCC19434 assessed as bacterial growth inhibition incubated for 20 hrs by CLSI based broth microdilution method; assay type: functional
[21] = test system: Enterococcus faecalis; experiment: Antibacterial activity against vancomycin-susceptible Enterococcus faecalis ATCC29212 assessed as bacterial growth inhibition incubated for 20 hrs by CLSI based broth microdilution method; assay type: functional
[22] = test system: Streptococcus pyogenes; experiment: Antibacterial activity against erythromycin-susceptible Streptococcus pyogenes 1 assessed as bacterial growth inhibition incubated for 20 hrs by CLSI based broth microdilution method; assay type: functional
[23] = test system: Staphylococcus aureus; experiment: Antibacterial activity against erythromycin-susceptible Staphylococcus aureus ATCC25923 assessed as bacterial growth inhibition incubated for 20 hrs by CLSI based broth microdilution method; assay type: functional
[24] = test system: Bacillus pumilus; experiment: Antibacterial activity against penicillin-susceptible Bacillus pumilus CMCC63202 assessed as bacterial growth inhibition incubated for 20 hrs by CLSI based broth microdilution method; assay type: functional
[25] = test system: Bacillus subtilis; experiment: Antibacterial activity against penicillin-susceptible Bacillus subtilis ATCC9372 assessed as bacterial growth inhibition incubated for 20 hrs by CLSI based broth microdilution method; assay type: functional
[26] = test system: Enterococcus faecalis; experiment: Antibacterial activity against vancomycin-resistant Enterococcus faecalis ATCC51299 assessed as bacterial growth inhibition incubated for 20 hrs by CLSI based broth microdilution method; assay type: functional
[27] = test system: Enterococcus faecium; experiment: Antibacterial activity against vancomycin-resistant Enterococcus faecium ATCC51559 assessed as bacterial growth inhibition incubated for 20 hrs by CLSI based broth microdilution method; assay type: functional
[28] = test system: Staphylococcus aureus; experiment: Induction of resistance development in Staphylococcus aureus ATCC25923 assessed as fold increase in MIC at 0.5 times MIC measured after 32 days by multi-passage resistance assay relative to control; assay type: functional; details: time 32.0 day
[29] = test system: Staphylococcus aureus; experiment: Inhibition of biofilm formation of Staphylococcus aureus ATCC25923 incubated for 20 hrs by crystal violet staining based analysis; assay type: functional, organism-based
[30] = test system: Staphylococcus aureus; experiment: Inhibition of biofilm formation of Staphylococcus aureus ATCC25923 at 0.5 ug/ml incubated for 20 hrs by crystal violet staining based analysis relative to control; assay type: functional
[31] = test system: Bacillus subtilis; experiment: Induction of morphological change in Bacillus subtilis ATCC9372 assessed as increase in cell length at 0.5 times MIC by phase contrast microscopy; assay type: functional, organism-based
[32] = molecular target: T1, Cell division protein FtsZ (Bacillus subtilis) (UniProt A5Z1V5); experiment: Induction of FtsZ polymerization in Bacillus subtilis at 2.5 to 10 ug/ml preincubated with compound followed by GTP addition by absorbance based assay; details: dose 2.5-10 µg/ml, time 40.0 min, TDE = time-dependent effect
T1 sequence (whole entry): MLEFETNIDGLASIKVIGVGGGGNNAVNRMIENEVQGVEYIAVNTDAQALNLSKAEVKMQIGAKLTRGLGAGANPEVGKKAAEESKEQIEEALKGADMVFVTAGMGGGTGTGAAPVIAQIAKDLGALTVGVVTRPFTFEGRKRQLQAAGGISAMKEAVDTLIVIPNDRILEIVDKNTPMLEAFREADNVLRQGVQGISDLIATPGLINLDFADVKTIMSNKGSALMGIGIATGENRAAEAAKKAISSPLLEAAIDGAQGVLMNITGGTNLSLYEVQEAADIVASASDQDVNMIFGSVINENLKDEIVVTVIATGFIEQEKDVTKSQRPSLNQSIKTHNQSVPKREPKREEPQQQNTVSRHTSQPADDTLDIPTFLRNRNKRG

[33] = molecular target: T1, Cell division protein FtsZ (Bacillus subtilis); experiment: Induction of FtsZ polymerization in Bacillus subtilis preincubated for 10 mins followed by GTP addition measured upto 30 mins by absorbance based assay; details: dose 2.5-10 µg/ml, time 40.0 min
[34] = molecular target: T1, Cell division protein FtsZ (Bacillus subtilis); experiment: Induction of FtsZ polymerization in Bacillus subtilis assessed as bundling of FtsZ protofilaments at 10 ug/ml preincubated for 15 mins followed by GTP addition measured after 10 mins by TEM analysis; details: dose 10.0 µg/ml, time 25.0 min
[35] = test system: Staphylococcus aureus; experiment: Induction of membrane potential depolarization in Staphylococcus aureus ATCC25923 measured after 20 mins by diSC35 dye based spectroscopy; assay type: functional, organism-based
[36] = test system: Staphylococcus aureus; experiment: Disruption of inner membrane in Staphylococcus aureus ATCC25923 measured after 12 mins by PI staining based analysis; assay type: functional, organism-based
[37] = test system: Staphylococcus aureus; experiment: Disruption of inner membrane in Staphylococcus aureus ATCC25923 by PI staining based analysis; assay type: functional, organism-based; details: time 12.0 min, TDE = time-dependent effect
[38] = test system: Staphylococcus aureus; experiment: Induction of morphological change in Staphylococcus aureus ATCC25923 assessed as loss of bacterial membrane integrity at 16 times MIC incubated for 2 hrs by TEM analysis; assay type: functional, organism-based
[39] = test system: Staphylococcus aureus; experiment: Induction of morphological change in Staphylococcus aureus ATCC25923 assessed as leakage of cell contents at 16 times MIC incubated for 2 hrs by TEM analysis; assay type: functional, organism-based
[40] = Hemolytic activity in mouse erythrocytes at 128 ug/ml incubated for 1 hr by absorbance based assay; assay type: toxicity, cell-based, Erythrocyte; details: dose 128 µg/ml, read-out: Activity

Cc1ccccc1-c1c[n+](C)c(-c2ccc(C(C)(C)C)cc2)cc1/C=C/c1ccc(O)cc1.[I-]
Ratio [1]: 4 | MBC [2]: 16 µg/mL | Ratio [3]: 8 | MBC [4]: 4 µg/mL | Ratio [5]: 16 | Ratio [6]: 4 | MBC [7]: 2 µg/mL | MBC [8]: 2 µg/mL | Ratio [9]: 32 | MBC [10]: 2 µg/mL | MIC [11]: 2 µg/mL | MIC [12]: 2 µg/mL | MIC [13]: 0.125 µg/mL | MIC [14]: 1 µg/mL | MIC [15]: 0.125 µg/mL | MIC [16]: > 64 µg/mL | MIC [17]: 4 µg/mL | MIC [18]: > 64 µg/mL | MIC [19]: 32 µg/mL | MIC [20]: 2 µg/mL | MIC [21]: 2 µg/mL | MIC [22]: 1 µg/mL | MIC [23]: 0.062 µg/mL | MIC [24]: 1 µg/mL | MIC [25]: 0.5 µg/mL | MIC [26]: 2 µg/mL | MIC [27]: 2 µg/mL | fold change (FC) [28]: 2 | inhibition [29]: Dose-Dependent Effect | inhibition at 0.5 µg/mL [30]: 39% | Activity [31]: Active | Activity [32]: Tde | Activity [33]: Dose-Dependent Effect | Activity [34]: Active | Activity [35]: Dose-Dependent Effect | Activity [36]: Dose-Dependent Effect | Activity [37]: Tde | Activity [38]: Active | Activity [39]: Active | hemolysis at 1 h, 128 ug/ml [40]: 7.59%
